Data on 17 molecules can be found in patent US8722656B2, “Cephalosporins useful as antibacterial agents” (Zoetis LLC, priority 2011, dated 2014).

For assay [1], the system named is E. coli 25922. The assay can be described thus: Dilution antimicrobial susceptibility test (M07-A8), E. coli. It counts as cell-based, Escherichia coli. The following applies: for MIC: Escherichia coli, antibacterial activity by dilution susceptibility test, isolate 25922; for E. coli/P. multocida: selectivity for P. multocida over E. coli (ratio of the two values). On the procedure: (§1) Compounds of the present invention were tested against an assortment of Gram-negative and Gram-positive organisms using the industrial standard techniques described in Methods for Dilution Antimicrobial Susceptibility Tests for Bacteria That grow Aerobically; Approved Standard-Eighth Edition, […]-A8, Vol. 29 No. 2 Replaces […]-A7 Vol. 26 No. 2. […] When comparing the activity against these isolates with that of the marketed human health drug of cefepime (screened in the same panel), the exemplified compounds of the present invention show >200 times more selectivity over E. coli.

Assay [2] has as its system P. multo 43719. The assay can be described thus: Dilution antimicrobial susceptibility test (M07-A8), P. multocida. The following applies: Pasteurella multocida; antibacterial activity by dilution susceptibility test, isolate 43719. The format is cell-based. The method, then: as §1
The subject of assay [3] is M. haemo 43411. The assay can be described thus: Dilution antimicrobial susceptibility test (M07-A8), M. haemolytica. It counts as cell-based. The conditions noted are these: Mannheimia haemolytica; antibacterial activity by dilution susceptibility test, isolate 43411. On the procedure:
as §1

Converted amounts (≈) assume the structure as drawn.

As for `CO/N=C(\C(=O)N[C@@H]1C(=O)N2C(C(=O)O)=C(Cc3cccc(CSC(C)=O)c3C)CS[C@H]12)c1csc(N)n1` [Example 1, (6R,7R)-3-{3-[(acetylsulfanyl)methyl]-2-methylbenzyl}-7-{[(2Z)-2-(2-amino-1,3-thiazol-4-yl)-2-(methoxyimino)acetyl]amino}-8-oxo-5-thia-1-azabicyclo[4.2.0]oct-2-ene-2-carboxylic acid], the MIC worked out at 16 µg/mL (≈ 27.8 µM) in assay [1], 0.03 µg/mL (≈ 0.0521 µM) in assay [2] and 0.06 µg/mL (≈ 0.104 µM) in assay [3]. Moreover, in assay [1], the “E. coli/P. multocida” value was 533.
Take `CO/N=C(\C(=O)N[C@@H]1C(=O)N2C(C(=O)O)=C(Cc3ccc(CSC(C)=O)cc3C)CS[C@H]12)c1csc(N)n1` [Example 2, (6R,7R)-3-{4-[(acetylsulfanyl)methyl]-2-methylbenzyl}-7-{[(2Z)-2-(2-amino-1,3-thiazol-4-yl)-2-(methoxyimino)acetyl]amino}-8-oxo-5-thia-1-azabicyclo[4.2.0]oct-2-ene-2-carboxylic acid]: the figures for the MIC in assay [1], in assay [2] and in assay [3] were 32 µg/mL (≈ 55.6 µM), 0.06 µg/mL (≈ 0.104 µM) and 0.25 µg/mL (≈ 0.434 µM), respectively. Moreover, the “E. coli/P. multocida” value in assay [1] came out at 533.
Take `CO/N=C(\C(=O)N[C@@H]1C(=O)N2C(C(=O)O)=C(Cc3cc(CSC(C)=O)ccc3C)CS[C@H]12)c1csc(N)n1` [Example 3, (6R,7R)-3-{5-[(acetylsulfanyl)methyl]-2-methylbenzyl}-7-{[(2Z)-2-(2-amino-1,3-thiazol-4-yl)-2-(methoxyimino)acetyl]amino}-8-oxo-5-thia-1-azabicyclo[4.2.0]oct-2-ene-2-carboxylic acid]: the MIC in assay [1] worked out at 32 µg/mL (≈ 55.6 µM); in assay [2] it was 0.125 µg/mL (≈ 0.217 µM); in assay [3], 0.25 µg/mL (≈ 0.434 µM). Moreover, the “E. coli/P. multocida” value in assay [1] stood at 256.
For `CO/N=C(\C(=O)N[C@@H]1C(=O)N2C(C(=O)O)=C(Cc3c(C)ccc(CSC(C)=O)c3C)CS[C@H]12)c1csc(N)n1` [Example 4, (6R,7R)-3-{3-[(acetylsulfanyl)methyl]-2,6-dimethylbenzyl}-7-{[(2Z)-2-(2-amino-1,3-thiazol-4-yl)-2-(methoxyimino)acetyl]amino}-8-oxo-5-thia-1-azabicyclo[4.2.0]oct-2-ene-2-carboxylic acid], the MIC in assay [1] came to 32 µg/mL (≈ 54.3 µM); in assay [2] it was 0.25 µg/mL (≈ 0.424 µM); in assay [3] it was 0.5 µg/mL (≈ 0.848 µM). For the same molecule, the “E. coli/P. multocida” value in assay [1] is 128.
With `CO/N=C(\C(=O)N[C@@H]1C(=O)N2C(C(=O)O)=C(Cc3c(C)c(CO)cc(CSC(C)=O)c3C)CS[C@H]12)c1csc(N)n1` [Example 5, (6R,7R)-3-{3-[(acetylsulfanyl)methyl]-5-(hydroxymethyl)-2,6-dimethylbenzyl}-7-{[(2Z)-2-(2-amino-1,3-thiazol-4-yl)-2-(methoxyimino)acetyl]amino}-8-oxo-5-thia-1-azabicyclo[4.2.0]oct-2-ene-2-carboxylic acid], the MIC was determined as 32 µg/mL (≈ 51.6 µM) in assay [1], 0.06 µg/mL (≈ 0.0968 µM) in assay [2] and 0.125 µg/mL (≈ 0.202 µM) in assay [3]. Further, the “E. coli/P. multocida” value in assay [1] was determined as 533.
Consider `CO/N=C(\C(=O)N[C@@H]1C(=O)N2C(C(=O)O)=C(Cc3c(C)cc(CSC(C)=O)cc3C)CS[C@H]12)c1csc(N)n1` [Example 6, (6R,7R)-3-{4-[(acetylsulfanyl)methyl]-2,6-dimethylbenzyl}-7-{[(2Z)-2-(2-amino-1,3-thiazol-4-yl)-2-(methoxyimino)acetyl]amino}-8-oxo-5-thia-1-azabicyclo[4.2.0]oct-2-ene-2-carboxylic acid], for which the MIC is 32 µg/mL (≈ 54.3 µM) in assay [1], 0.25 µg/mL (≈ 0.424 µM) in assay [2] and 0.5 µg/mL (≈ 0.848 µM) in assay [3]. Also, the “E. coli/P. multocida” value in assay [1] stood at 128.
Consider `CO/N=C(\C(=O)N[C@@H]1C(=O)N2C(C(=O)O)=C(Cc3cccc(NC(=O)CSC(C)=O)c3C)CS[C@H]12)c1csc(N)n1` [Example 7, (6R,7R)-3-(3-{[(acetylsulfanyl)acetyl]amino}-2-methylbenzyl)-7-{[(2Z)-2-(2-amino-1,3-thiazol-4-yl)-2-(methoxyimino)acetyl]amino}-8-oxo-5-thia-1-azabicyclo[4.2.0]oct-2-ene-2-carboxyl is acid], for which the MIC in assay [1] worked out at 16 µg/mL (≈ 25.9 µM); in assay [2], 0.06 µg/mL (≈ 0.097 µM); in assay [3] it was 0.06 µg/mL (≈ 0.097 µM). Moreover, the “E. coli/P. multocida” value in assay [1] is 266.
`CO/N=C(\C(=O)N[C@@H]1C(=O)N2C(C(=O)O)=C(Cc3cc(NC(=O)CSC(C)=O)ccc3C)CS[C@H]12)c1csc(N)n1` [Example 8, (6R,7R)-3-(5-{[(acetylsulfanyl)acetyl]amino}-2-methylbenzyl)-7-{[(2Z)-2-(2-amino-1,3-thiazol-4-yl)-2-(methoxyimino)acetyl]amino}-8-oxo-5-thia-1-azabicyclo[4.2.0]oct-2-ene-2-carboxyl is acid]: the MIC was determined as 16 µg/mL (≈ 25.9 µM) in assay [1], 0.06 µg/mL (≈ 0.097 µM) in assay [2] and 0.06 µg/mL (≈ 0.097 µM) in assay [3]. Besides, in assay [1], the “E. coli/P. multocida” value is 266.
For `CCCN(C(=O)CSC(C)=O)c1ccc(CC2=C(C(=O)O)N3C(=O)[C@@H](NC(=O)/C(=N\OC)c4csc(N)n4)[C@H]3SC2)cc1` [Example 9], the MIC in assay [1] was 64 µg/mL (≈ 99 µM); in assay [2] it was 0.25 µg/mL (≈ 0.387 µM); in assay [3], 0.5 µg/mL (≈ 0.773 µM). For the same molecule, the “E. coli/P. multocida” value in assay [1] amounted to 256.
In the same order, the values of `CO/N=C(\C(=O)N[C@@H]1C(=O)N2C(C(=O)O)=C(Cc3cccc(N(C)C(=O)CSC(C)=O)c3)CS[C@H]12)c1csc(N)n1` [Example 10] are 32 µg/mL (≈ 51.7 µM), 0.06 µg/mL (≈ 0.097 µM), 0.125 µg/mL (≈ 0.202 µM) and 533.
For `CO/N=C(\C(=O)N[C@@H]1C(=O)N2C(C(=O)O)=C(Cc3cccc(NC(=O)CSC)c3)CS[C@H]12)c1csc(N)n1` [Example 11, (6R,7R)-7-{[(2Z)-2-(2-amino-1,3-thiazol-4-yl)-2-(methoxyimino)acetyl]amino}-3-(3-{[(methylsulfanyl)acetyl]amino}benzyl)-8-oxo-5-thia-1-azabicyclo[4.2.0]oct-2-ene-2-carboxylic acid], the MIC was determined as 4 µg/mL (≈ 6.94 µM) in assay [1], 0.03 µg/mL (≈ 0.052 µM) in assay [2] and 0.03 µg/mL (≈ 0.052 µM) in assay [3]. In assay [1], the “E. coli/P. multocida” value is 133.
On to `CO/N=C(\C(=O)N[C@@H]1C(=O)N2C(C(=O)O)=C(Cc3cccc(NC(=O)CSC(C)=O)c3)CS[C@H]12)c1csc(N)n1` [Example 12, (6R,7R)-3-(3-{[(acetylsulfanyl)acetyl]amino}benzyl)-7-{[(2Z)-2-(2-amino-1,3-thiazol-4-yl)-2-(methoxyimino)acetyl]amino}-8-oxo-5-thia-1-azabicyclo[4.2.0]oct-2-ene-2-carboxylic acid], for which the MIC is 8 µg/mL (≈ 13.2 µM) in assay [1], 0.06 µg/mL (≈ 0.0992 µM) in assay [2] and 0.03 µg/mL (≈ 0.0496 µM) in assay [3]. The “E. coli/P. multocida” value in assay [1] is recorded as 133.
Take `CO/N=C(\C(=O)N[C@@H]1C(=O)N2C(C(=O)O)=C(Cc3cccc(N(C(=O)CS)C(C)C)c3)CS[C@H]12)c1csc(N)n1` [Example 13, (6R,7R)-7-{[(2Z)-2-(2-amino-1,3-thiazol-4-yl)-2-(methoxyimino)acetyl]amino}-8-oxo-3-{3-[propan-2-yl(sulfanylacetyl)amino]benzyl}-5-thia-1-azabicyclo[4.2.0]oct-2-ene-2-carboxylic acid]: the MIC was 8 µg/mL (≈ 13.2 µM) in assay [1], 0.03 µg/mL (≈ 0.0496 µM) in assay [2] and 0.06 µg/mL (≈ 0.0992 µM) in assay [3]. Besides, the “E. coli/P. multocida” value in assay [1] was 266.
With `CO/N=C(\C(=O)N[C@@H]1C(=O)N2C(C(=O)O)=C(Cc3cc(NS(C)(=O)=O)cc(C)c3C)CS[C@H]12)c1csc(N)n1` [Example 14, (6R,7R)-7-{[(2Z)-2-(2-amino-1,3-thiazol-4-yl)-2-(methoxyimino)acetyl]amino}-3-{2,3-dimethyl-5-[(methylsulfonyl)amino]benzyl}-8-oxo-5-thia-1-azabicyclo[4.2.0]oct-2-ene-2-carboxylic acid], the MIC worked out at 16 µg/mL (≈ 26.9 µM) in assay [1], 0.03 µg/mL (≈ 0.0504 µM) in assay [2] and 0.06 µg/mL (≈ 0.101 µM) in assay [3]. Further, in assay [1], the “E. coli/P. multocida” value was 533.
The like results for `CO/N=C(\C(=O)N[C@@H]1C(=O)N2C(C(=O)O)=C(Cc3cc(NS(C)(=O)=O)c(C)cc3C)CS[C@H]12)c1csc(N)n1` [Example 15, (6R,7R)-7-{[(2Z)-2-(2-amino-1,3-thiazol-4-yl)-2-(methoxyimino)acetyl]amino}-3-{2,4-dimethyl-5-[(methylsulfonyl)amino]benzyl}-8-oxo-5-thia-1-azabicyclo[4.2.0]oct-2-ene-2-carboxylic acid] were, in that order, 32 µg/mL (≈ 53.8 µM), 0.125 µg/mL (≈ 0.21 µM), 0.5 µg/mL (≈ 0.841 µM) and 256.
On to `CO/N=C(\C(=O)N[C@@H]1C(=O)N2C(C(=O)O)=C(Cc3cccc(N(C)S(C)(=O)=O)c3)CS[C@H]12)c1csc(N)n1` [Example 16, (6R,7R)-7-{[(2Z)-2-(2-amino-1,3-thiazol-4-yl)-2-(methoxyimino)acetyl]amino}-3-{3-[methyl(methylsulfonyl)amino]benzyl}-8-oxo-5-thia-1-azabicyclo[4.2.0]oct-2-ene-2-carboxylic acid], for which the values for the MIC in assay [1], in assay [2] and in assay [3] were 16 µg/mL (≈ 27.6 µM), 0.03 µg/mL (≈ 0.0517 µM) and 0.03 µg/mL (≈ 0.0517 µM), respectively. For the same molecule, the “E. coli/P. multocida” value in assay [1] stood at 533.
For the molecule `CO/N=C(\C(=O)N[C@@H]1C(=O)N2C(C(=O)O)=C(Cc3cccc(NS(C)(=O)=O)c3)CS[C@H]12)c1csc(N)n1` [Example 17, (6R,7R)-7-{[(2Z)-2-(2-amino-1,3-thiazol-4-yl)-2-(methoxyimino)acetyl]amino}-3-{3-[(methylsulfonyl)amino]benzyl}-8-oxo-5-thia-1-azabicyclo[4.2.0]oct-2-ene-2-carboxylic acid], the MIC in assay [1] came to 8 µg/mL (≈ 14.1 µM); in assay [2], 0.03 µg/mL (≈ 0.0529 µM); in assay [3], 0.015 µg/mL (≈ 0.0265 µM). Moreover, the “E. coli/P. multocida” value in assay [1] is 266.
